Reference: ChEMBL document CHEMBL1201862, “PubChem BioAssay data set” (2004)
Calls of active or inactive are those of the source.

What was measured:
Large T antigen = Large T antigen (Simian virus 40, UniProt P03070); type: functional, Betapolyomavirus macacae;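 note: Confirmatory-stage PubChem screen for compounds that inhibit SV40 T antigen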
SUMO-activating enzyme [1] = biological target: T1, SUMO-activating enzyme (Homo sapiens, UniProt Q9UBT2); experiment: blockers of UBC9-mediated SUMO conjugation – biochemical, AlphaScreen, SUMOylation inhibitor project, confirmation (AID 2018); type: functional
[2] = biological target: Intestinal-type alkaline phosphatase (Homo sapiens, UniProt P09923); experiment: inhibition of human intestinal alkaline phosphatase – biochemical, dose response (AID 488876); type: functional
[3] = biological target: Intestinal-type alkaline phosphatase (Mus musculus, UniProt P24822); experiment: PubChem AID 488785; type: functional
SUMO-activating enzyme [4] = biological target: T1, SUMO-activating enzyme; experiment: blockers of SAE1/SAE2–UBC9 SUMO transfer – biochemical, HTRF, uHTS, primary screen (AID 2006); type: protein-complex assay
[5] = biological target: T2, Alkaline phosphatase, tissue-nonspecific isozyme (Homo sapiens, UniProt P05186); experiment: TNAP enzyme inhibition by screening hits, dose response, selectivity assay for mouse IAP inhibitor project, biochemical, human TNAP, uHTS hits (AID 488906); type: functional
T2 sequence (P05186 whole entry): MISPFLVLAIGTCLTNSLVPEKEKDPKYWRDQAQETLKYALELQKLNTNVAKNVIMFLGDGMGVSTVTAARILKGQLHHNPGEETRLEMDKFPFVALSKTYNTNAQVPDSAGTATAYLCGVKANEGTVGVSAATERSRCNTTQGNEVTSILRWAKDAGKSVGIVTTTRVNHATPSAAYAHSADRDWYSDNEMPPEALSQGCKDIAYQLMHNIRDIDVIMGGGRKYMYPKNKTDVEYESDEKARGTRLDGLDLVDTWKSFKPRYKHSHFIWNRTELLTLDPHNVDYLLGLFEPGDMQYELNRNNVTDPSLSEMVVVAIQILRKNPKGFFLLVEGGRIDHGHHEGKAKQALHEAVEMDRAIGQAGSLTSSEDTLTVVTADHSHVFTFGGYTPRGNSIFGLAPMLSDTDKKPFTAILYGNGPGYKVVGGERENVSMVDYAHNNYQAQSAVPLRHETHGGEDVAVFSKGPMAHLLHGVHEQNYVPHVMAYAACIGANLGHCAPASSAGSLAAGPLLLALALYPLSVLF

[6] = Luminescence Cell-Based Dose Confirmation HTS to Identify Inhibitors of 5'UTR Stem-Loop Driven Alpha-Synuclein mRNA Translation in H4 Neuroglioblastoma Cells. [Related pubchem assays: 1827 (Project Summary), 1813 (Primary HTS)]; type: functional
[7] = Luminescence Cell-Based Dose Response HTS to Identify Activators of 5'UTR Stem-Loop Driven Prion Protein mRNA Translation in H4-C Neuroglioblastoma Cells. [Related pubchem assays: 1829 (Project Summary), 1814 (Primary HTS)]; type: functional
[8] = Luminescence Cell-Based Dose Response HTS to Identify Inhibitors of 5'UTR Stem-Loop Driven Prion Protein mRNA Translation in H4 Neuroglioblastoma Cells. [Related pubchem assays: 1827 (Project Summary), 1813 (Primary HTS)]; type: functional
[9] = alpha-synuclein stem-loop luciferase translation blockers – H4 neuroglioma cells, luminescence, confirmation (AID 1988); type: functional, cell-based
[10] = Luminescence Cell-Based Dose HTS Response to Identify Inhibitors of 5'UTR Stem-Loop Driven Prion Protein mRNA Translation in H4-C Neuroglioblastoma Cells. [Related pubchem assays (depositor defined):AID1814, AID1827]; type: functional
[11] = Luminescence Cell-Based Dose Response HTS to Identify Activators of Luciferase Translation or Activity in H4-C Neuroglioblastoma Cells. [Related pubchem assays: 1829 (Project Summary), 1814 (Primary HTS)]; type: functional
[12] = Luminescence Cell-Based Dose Response HTS to Identify Inhibitors of Luciferase Translation or Activity in H4-C Neuroglioblastoma Cells. [Related pubchem assays: 1813 (Primary HTS), 1827 (Project Summary)]; type: functional
[13] = Luminescence Cell-Based Dose Retest to Confirm Activators of 5'UTR Stem-Loop Driven Alpha-Synuclein mRNA Translation in H4 Neuroglioblastoma Cells. [Related pubchem assays (depositor defined):AID1813, AID1829]; type: functional
[14] = luciferase reporter signal suppression in cells – H4 neuroglioma cells, luminescence, dose response (AID 1990); type: functional, cell-based
[15] = PhoP promoter GFP reporter reduction in Typhimurium – purified and synthesized compounds, set 2, PhoP regulon inhibitor project, dose response (AID 2831); type: functional
[16] = toxicity toward cultured mammalian cells – cell-based, plate reader, cherry-pick samples, cytotoxicity control, dose response (AID 504397); type: functional
CAAX prenyl protease 2 = biological target: T3, CAAX prenyl protease 2 (Saccharomyces cerevisiae S288c, UniProt Q03530); type: biochemical
T3 sequence (Q03530 whole entry): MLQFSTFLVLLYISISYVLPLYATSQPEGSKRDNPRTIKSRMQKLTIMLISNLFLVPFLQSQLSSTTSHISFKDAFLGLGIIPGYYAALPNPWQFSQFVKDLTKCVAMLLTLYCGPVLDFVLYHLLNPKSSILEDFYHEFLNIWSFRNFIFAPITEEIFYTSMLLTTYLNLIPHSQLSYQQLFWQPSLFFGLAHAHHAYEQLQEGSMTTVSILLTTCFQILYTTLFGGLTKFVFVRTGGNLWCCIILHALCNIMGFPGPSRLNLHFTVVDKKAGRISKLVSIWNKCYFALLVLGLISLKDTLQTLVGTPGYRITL

[17] = Luminescence Cell-Based Dose Retest to Confirm Inhibitors of Cancer Stem Cells. [Related pubchem assays (depositor defined):AID2717, AID2721]; type: functional; details: Homo sapiens
Cannabinoid receptor 1 [18] = biological target: T4, Cannabinoid receptor 1 (Homo sapiens, UniProt P21554); experiment: SAR analysis of agonists of the Cannabinoid Receptor 1 using an Image-Based Assay - Set 2. [Related pubchem assays (depositor defined):AID2013, AID2026]; type: functional
Cannabinoid receptor 1 [19] = biological target: T4, Cannabinoid receptor 1; experiment: SAR analysis of antagonists of the Cannabinoid Receptor 1 using an Image-Based Assay - Set 2. [Related pubchem assays (depositor defined):AID2013, AID2026]; type: functional
[20] = biological target: T5, G-protein coupled receptor 35 (Homo sapiens, UniProt Q9HC97); experiment: SAR analysis of Agonists of the GPR35 Receptor using an Image-Based Assay - Set 2. [Related pubchem assays (depositor defined):AID2013, AID2026]; type: functional
Cannabinoid receptor 2 [21] = biological target: T6, Cannabinoid receptor 2 (Homo sapiens, UniProt P34972); experiment: SAR analysis of agonists of the Cannabinoid Receptor 2 using an Image-Based Assay. [Related pubchem assays (depositor defined):AID2013, AID2026]; type: functional
[22] = biological target: T7, G-protein coupled receptor 55 (Homo sapiens, UniProt Q9Y2T6); experiment: inhibition of LPI-stimulated GPR55 beta-arrestin translocation – imaging, U2OS, beta-arrestin-GFP, LPI agonist, primary screen (AID 2013); type: functional;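 note: antagonist potency measured as reduced agonist-driven arrestin aggregation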
[23] = biological target: T5, G-protein coupled receptor 35; experiment: SAR analysis of Antagonists of the GPR35 Receptor using an Image-Based Assay - Set 3. [Related pubchem assays (depositor defined):AID2013, AID2026]; type: functional
[24] = biological target: T7, G-protein coupled receptor 55; experiment: blockade of LPI-induced GPR55 arrestin translocation – imaging, U2OS, beta-arrestin-GFP, LPI agonist, set 2, SAR follow-up (AID 2820); type: functional
Cannabinoid receptor 2 [25] = biological target: T6, Cannabinoid receptor 2; experiment: SAR analysis of antagonists of the Cannabinoid Receptor 2 using an Image-Based Assay. [Related pubchem assays (depositor defined):AID2013, AID2026]; type: functional
[26] = biological target: Voltage-dependent T-type calcium channel subunit alpha-1H (Homo sapiens, UniProt O95180); experiment: inhibition of CACNA1H calcium flux – cell-based, SynthLib3 library, HEK293 Cav3.2, fluorescence (AID 493041); type: functional
[27] = biological target: Kappa-type opioid receptor (Homo sapiens, UniProt P41145); experiment: SAR analysis of small molecule agonists of the kappa opioid receptor via a luminescent beta-arrestin assay - Set 3. [Related pubchem assays (depositor defined):AID1777, AID1785, AID1786, AID1966, AID2133, AID2136, AID2284, AID2500]; type: functional
SUMO E1/E2 = SUMO E1/E2 (Homo sapiens, UniProt P63279+Q9UBE0+Q9UBT2); experiment: SAR analysis of SUMOylation using HTRF in an in-Vitro dose response assay. [Related pubchem assays (depositor defined):AID2006, AID2011, AID2018, AID2069, AID2658]; type: functional
[28] = biological target: T8, Sentrin-specific protease 8 (Homo sapiens, UniProt Q96LD8); type: functional
T8 sequence (Q96LD8 whole entry): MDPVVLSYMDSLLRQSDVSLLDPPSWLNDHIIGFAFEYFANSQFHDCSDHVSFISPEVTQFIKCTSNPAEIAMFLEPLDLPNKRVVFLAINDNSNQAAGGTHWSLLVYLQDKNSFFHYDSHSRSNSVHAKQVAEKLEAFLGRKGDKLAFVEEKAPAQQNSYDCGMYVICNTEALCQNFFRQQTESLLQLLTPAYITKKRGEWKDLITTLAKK

[29] = biological target: T9, Zinc finger protein mex-5 (Caenorhabditis elegans, UniProt Q9XUB2); experiment: potency of MEX-5 RNA-binding blockers – biochemical, C. elegans, fluorescence polarization, dose response (AID 1960)
T9 sequence (Q9XUB2 whole entry): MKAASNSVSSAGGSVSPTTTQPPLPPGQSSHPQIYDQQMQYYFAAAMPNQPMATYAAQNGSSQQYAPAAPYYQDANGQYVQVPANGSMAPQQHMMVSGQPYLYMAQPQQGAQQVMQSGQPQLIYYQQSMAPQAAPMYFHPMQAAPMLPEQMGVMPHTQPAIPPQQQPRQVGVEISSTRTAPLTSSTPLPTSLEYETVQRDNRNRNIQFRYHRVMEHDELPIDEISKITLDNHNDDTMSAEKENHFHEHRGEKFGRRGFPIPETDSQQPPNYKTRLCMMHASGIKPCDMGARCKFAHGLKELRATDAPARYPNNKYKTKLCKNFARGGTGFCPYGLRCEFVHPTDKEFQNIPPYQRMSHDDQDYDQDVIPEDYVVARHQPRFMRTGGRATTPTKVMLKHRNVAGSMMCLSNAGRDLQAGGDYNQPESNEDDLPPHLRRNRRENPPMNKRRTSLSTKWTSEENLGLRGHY

[30] = biological target: T10, RNA-binding protein pos-1 (Caenorhabditis elegans, UniProt G5EF15); experiment: disruptors of C. elegans POS-1 RNA interaction – biochemical, fluorescence polarization, dose response (AID 1964);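 note: purified POS-1 fused to maltose binding protein made in E. coli; potency of compounds blocking POS-1 binding to fluorescent RNA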
T10 sequence (G5EF15 whole entry): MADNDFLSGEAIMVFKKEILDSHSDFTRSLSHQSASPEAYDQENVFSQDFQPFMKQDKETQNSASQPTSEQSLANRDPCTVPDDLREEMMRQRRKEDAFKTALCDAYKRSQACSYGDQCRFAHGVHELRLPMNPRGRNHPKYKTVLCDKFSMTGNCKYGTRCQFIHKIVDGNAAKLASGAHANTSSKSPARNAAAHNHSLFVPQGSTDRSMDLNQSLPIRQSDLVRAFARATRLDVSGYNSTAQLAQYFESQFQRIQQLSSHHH

[31] = biological target: Tyrosyl-DNA phosphodiesterase 2 (Homo sapiens, UniProt O95551); experiment: potency against TDP2 phosphodiesterase activity – biochemical, epi absorbance, IC50, dose response (AID 743297)
[32] = biological target: T8, Sentrin-specific protease 8; type: functional; remark: listed apart in the source
[33] = biological target: Lysine-specific demethylase 4A (Homo sapiens, UniProt O75164); experiment: inhibition of JMJD2A H3K9me3 demethylation – biochemical, DELFIA europium, cherry-picked samples, selectivity assay for GASC-1 inhibitor project, dose response (AID 488840)
[34] = biological target: Lysine-specific demethylase 4C (Homo sapiens, UniProt Q9H3R0); experiment: inhibition of JMJD2C H3K9me3 demethylation – biochemical, DELFIA europium, cherry-picked samples, dose response (AID 488835); type: functional
Sequence of Lysine-specific demethylase 4C (Q9H3R0 whole entry): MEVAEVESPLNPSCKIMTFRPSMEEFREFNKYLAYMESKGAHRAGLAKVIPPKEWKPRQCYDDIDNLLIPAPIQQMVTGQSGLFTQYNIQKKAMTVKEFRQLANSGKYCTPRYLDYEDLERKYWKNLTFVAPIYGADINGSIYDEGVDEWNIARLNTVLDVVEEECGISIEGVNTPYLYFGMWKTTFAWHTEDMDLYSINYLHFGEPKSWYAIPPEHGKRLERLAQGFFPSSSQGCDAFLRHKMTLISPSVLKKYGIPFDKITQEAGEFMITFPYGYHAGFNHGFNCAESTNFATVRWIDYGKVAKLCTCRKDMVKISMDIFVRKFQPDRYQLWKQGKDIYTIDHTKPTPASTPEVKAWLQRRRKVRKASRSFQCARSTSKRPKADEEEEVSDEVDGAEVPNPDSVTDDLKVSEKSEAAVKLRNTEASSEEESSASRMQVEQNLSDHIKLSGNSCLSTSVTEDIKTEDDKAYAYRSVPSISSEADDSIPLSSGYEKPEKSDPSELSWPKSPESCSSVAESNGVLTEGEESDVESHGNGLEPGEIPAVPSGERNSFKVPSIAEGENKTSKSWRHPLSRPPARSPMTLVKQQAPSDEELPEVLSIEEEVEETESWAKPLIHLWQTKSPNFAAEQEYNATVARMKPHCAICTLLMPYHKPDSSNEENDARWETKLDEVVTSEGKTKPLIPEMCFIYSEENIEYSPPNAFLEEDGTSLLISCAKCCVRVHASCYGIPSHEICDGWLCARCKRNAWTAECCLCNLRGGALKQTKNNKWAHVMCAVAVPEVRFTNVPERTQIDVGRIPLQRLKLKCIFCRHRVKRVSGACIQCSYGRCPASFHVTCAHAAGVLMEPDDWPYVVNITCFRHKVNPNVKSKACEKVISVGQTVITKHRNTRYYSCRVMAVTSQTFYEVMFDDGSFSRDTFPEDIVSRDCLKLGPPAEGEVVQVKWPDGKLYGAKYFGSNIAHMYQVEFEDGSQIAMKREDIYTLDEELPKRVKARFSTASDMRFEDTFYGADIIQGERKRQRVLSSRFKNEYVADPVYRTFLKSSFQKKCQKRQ

T4 sequence (P21554 whole entry): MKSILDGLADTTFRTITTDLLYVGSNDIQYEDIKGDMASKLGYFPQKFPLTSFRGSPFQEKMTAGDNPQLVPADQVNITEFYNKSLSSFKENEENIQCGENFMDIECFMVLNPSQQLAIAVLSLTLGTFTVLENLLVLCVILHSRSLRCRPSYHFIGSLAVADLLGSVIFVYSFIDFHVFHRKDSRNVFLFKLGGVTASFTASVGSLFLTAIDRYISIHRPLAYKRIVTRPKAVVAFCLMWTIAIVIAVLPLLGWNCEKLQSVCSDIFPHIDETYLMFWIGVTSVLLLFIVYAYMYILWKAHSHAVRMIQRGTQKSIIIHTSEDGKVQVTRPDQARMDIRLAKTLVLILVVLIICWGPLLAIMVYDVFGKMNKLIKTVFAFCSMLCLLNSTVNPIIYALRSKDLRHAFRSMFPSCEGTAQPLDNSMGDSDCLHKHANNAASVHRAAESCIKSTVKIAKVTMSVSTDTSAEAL
T6 sequence (P34972 whole entry): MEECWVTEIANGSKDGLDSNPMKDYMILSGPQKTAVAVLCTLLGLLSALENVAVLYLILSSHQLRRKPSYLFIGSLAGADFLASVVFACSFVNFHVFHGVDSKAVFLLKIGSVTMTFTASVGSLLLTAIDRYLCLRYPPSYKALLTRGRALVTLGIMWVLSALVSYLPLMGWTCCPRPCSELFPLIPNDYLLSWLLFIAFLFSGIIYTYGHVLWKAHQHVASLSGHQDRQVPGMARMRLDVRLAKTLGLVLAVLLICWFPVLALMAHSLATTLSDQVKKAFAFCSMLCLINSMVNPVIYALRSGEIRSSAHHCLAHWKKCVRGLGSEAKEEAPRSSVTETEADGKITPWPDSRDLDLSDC
T1 sequence (Q9UBE0 whole entry): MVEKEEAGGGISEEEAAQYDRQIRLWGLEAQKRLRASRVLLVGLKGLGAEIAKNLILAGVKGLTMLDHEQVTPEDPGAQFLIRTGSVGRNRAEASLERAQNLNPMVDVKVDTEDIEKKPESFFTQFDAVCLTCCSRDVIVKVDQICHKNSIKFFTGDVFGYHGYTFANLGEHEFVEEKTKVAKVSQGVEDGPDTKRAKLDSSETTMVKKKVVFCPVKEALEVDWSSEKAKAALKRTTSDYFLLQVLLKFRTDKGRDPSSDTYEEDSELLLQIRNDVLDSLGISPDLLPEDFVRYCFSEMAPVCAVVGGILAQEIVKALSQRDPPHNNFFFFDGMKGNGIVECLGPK
T1 sequence (Q9UBT2 whole entry): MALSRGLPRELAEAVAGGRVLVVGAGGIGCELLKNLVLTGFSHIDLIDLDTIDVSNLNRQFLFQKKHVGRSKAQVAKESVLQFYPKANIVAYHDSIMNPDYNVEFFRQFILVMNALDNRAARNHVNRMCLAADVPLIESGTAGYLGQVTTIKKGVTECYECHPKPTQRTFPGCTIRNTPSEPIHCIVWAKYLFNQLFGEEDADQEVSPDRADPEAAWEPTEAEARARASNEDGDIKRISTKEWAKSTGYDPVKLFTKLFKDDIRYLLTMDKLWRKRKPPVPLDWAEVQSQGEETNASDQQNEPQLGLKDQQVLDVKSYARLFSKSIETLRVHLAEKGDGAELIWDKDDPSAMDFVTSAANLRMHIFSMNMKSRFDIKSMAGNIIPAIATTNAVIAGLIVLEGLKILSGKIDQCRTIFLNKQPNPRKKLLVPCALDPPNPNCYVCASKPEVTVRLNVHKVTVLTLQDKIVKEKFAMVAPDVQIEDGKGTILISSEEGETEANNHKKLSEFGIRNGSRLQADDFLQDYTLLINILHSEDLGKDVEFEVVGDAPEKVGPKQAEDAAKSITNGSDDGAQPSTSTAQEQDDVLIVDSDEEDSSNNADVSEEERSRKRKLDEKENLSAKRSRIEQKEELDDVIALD
T5 sequence (Q9HC97 whole entry): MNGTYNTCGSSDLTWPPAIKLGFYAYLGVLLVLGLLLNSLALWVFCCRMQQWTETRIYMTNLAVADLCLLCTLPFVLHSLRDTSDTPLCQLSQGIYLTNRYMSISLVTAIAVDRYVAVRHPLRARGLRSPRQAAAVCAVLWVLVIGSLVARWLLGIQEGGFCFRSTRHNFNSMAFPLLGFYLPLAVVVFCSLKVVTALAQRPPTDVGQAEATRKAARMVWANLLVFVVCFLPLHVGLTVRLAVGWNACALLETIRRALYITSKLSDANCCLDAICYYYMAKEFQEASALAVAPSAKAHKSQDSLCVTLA
T7 sequence (Q9Y2T6 whole entry): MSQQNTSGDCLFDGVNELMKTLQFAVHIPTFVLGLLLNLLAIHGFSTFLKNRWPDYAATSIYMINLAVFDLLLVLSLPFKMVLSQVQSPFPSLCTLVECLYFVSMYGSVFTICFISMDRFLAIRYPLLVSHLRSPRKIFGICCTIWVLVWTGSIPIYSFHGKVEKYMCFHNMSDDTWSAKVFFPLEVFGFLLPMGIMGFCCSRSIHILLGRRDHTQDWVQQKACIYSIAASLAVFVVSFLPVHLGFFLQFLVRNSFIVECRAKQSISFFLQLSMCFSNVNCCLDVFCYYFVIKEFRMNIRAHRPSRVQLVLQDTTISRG
Sequence of SUMO E1/E2 (Q9UBE0 whole entry): as the sequence (Q9UBE0 whole entry) above
Sequence of SUMO E1/E2 (Q9UBT2 whole entry): as the sequence (Q9UBT2 whole entry) above
Sequence of SUMO E1/E2 (P63279 whole entry): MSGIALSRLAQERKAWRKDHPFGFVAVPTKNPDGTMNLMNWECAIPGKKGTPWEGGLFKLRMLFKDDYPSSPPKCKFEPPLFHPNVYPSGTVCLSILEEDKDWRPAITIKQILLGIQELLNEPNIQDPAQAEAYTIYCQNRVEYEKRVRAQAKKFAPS
Sequence of Tyrosyl-DNA phosphodiesterase 2 (O95551 whole entry): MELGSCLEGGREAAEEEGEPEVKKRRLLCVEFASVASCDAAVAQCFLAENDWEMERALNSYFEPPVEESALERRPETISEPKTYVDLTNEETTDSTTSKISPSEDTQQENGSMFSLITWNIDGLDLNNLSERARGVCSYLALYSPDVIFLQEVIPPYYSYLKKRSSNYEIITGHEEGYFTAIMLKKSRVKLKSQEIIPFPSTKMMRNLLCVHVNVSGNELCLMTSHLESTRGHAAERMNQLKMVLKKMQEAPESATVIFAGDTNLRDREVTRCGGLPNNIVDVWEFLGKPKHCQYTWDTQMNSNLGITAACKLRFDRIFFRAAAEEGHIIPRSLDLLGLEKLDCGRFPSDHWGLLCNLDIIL
Sequence of Large T antigen (P03070 whole entry): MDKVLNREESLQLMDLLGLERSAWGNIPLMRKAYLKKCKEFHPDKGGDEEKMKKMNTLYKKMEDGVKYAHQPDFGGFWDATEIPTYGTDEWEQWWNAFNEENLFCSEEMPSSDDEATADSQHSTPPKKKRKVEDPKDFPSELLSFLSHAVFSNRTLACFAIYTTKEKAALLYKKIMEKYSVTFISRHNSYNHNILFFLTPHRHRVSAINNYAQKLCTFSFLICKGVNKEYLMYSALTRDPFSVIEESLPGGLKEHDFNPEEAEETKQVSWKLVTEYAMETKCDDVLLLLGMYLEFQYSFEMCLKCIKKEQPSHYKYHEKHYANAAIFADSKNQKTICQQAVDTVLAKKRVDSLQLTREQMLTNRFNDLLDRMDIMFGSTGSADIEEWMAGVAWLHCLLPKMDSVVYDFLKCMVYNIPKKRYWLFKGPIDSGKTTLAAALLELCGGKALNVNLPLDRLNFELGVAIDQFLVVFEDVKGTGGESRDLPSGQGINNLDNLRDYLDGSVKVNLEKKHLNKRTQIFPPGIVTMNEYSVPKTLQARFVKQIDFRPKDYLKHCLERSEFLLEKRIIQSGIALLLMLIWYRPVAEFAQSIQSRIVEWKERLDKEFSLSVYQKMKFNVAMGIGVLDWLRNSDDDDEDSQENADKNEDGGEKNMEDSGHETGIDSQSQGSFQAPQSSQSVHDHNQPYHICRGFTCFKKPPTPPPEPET

With `NC1=NC(=O)/C(=C\c2ccco2)S1` the IC50 (Large T antigen) was 67.2 µM (active), the IC50 (SUMO-activating enzyme [1]) was 2.89 µM (active) and the IC50 [2] was 19.8 µM (active). For the same molecule, the IC50 [3] was 4.59 µM (active), the IC50 (SUMO-activating enzyme [4]) was 21.7 µM (active) and the IC50 [5] was > 100 µM (inactive).
With `COc1ccc(/C=N/NC(=O)c2cc3c(OC)ccc(OC)c3[nH]2)cc1O` the EC50 [6] was 2.9 µM (active), the EC50 [7] was 0.765 µM (inconclusive) and the EC50 [8] was 13.3 µM (active). For the same molecule, the EC50 [9] was 0.291 µM (active), the EC50 [10] was 1.75 µM (active) and the EC50 [11] was 2.51 µM (inconclusive). For the same molecule, the EC50 [12] was 0.747 µM (active), the EC50 [13] was 29.5 µM (inconclusive) and the EC50 [14] was 9.89 µM (active).
In the case of `S=C(NCc1ccc(Cl)cc1)Nc1ccc(Cl)cc1`, the IC50 [15] was > 150 µM (active).
In the case of `Clc1cccc(CN2CCc3c([nH]c4ccccc34)C2)c1Cl`, the AC50 [16] was 117 µM (active), the AC50 (CAAX prenyl protease 2) was 3.27 µM (active) and the AC50 [17] was 4.83 µM (active).
With `Cc1cccc2c1NC(=O)C2(c1ccc(O)cc1)c1ccc(O)cc1` the EC50 (Cannabinoid receptor 1 [18]) was > 32 µM (inactive), the IC50 (Cannabinoid receptor 1 [19]) was 31.3 µM (inactive) and the EC50 [20] was > 32 µM (inactive). For the same molecule, the EC50 (Cannabinoid receptor 2 [21]) was > 32 µM (inactive), the IC50 [22] was 2.53 µM (active) and the IC50 [23] was 7.66 µM (active). The IC50 [24] was 0.125 µM (active) and the IC50 (Cannabinoid receptor 2 [25]) was > 32 µM (inactive).
For `O=C(COc1ccc(F)c(Cl)c1)N[C@H]1CCCN(CC2CCCC2)C1`, the EC50 [26] was 10 µM (active).
With `FC(F)(F)c1cc(CSc2nnc(-c3ccccn3)n2Cc2cccnc2)ccc1Cl` the EC50 [27] was 0.501 µM (active).
In the case of `Cc1[nH][nH]c(=O)c1C(c1ccc(-c2cccc(C(=O)O)c2)o1)c1c(C)[nH][nH]c1=O`, the IC50 (SUMO E1/E2) was 84.1 µM (active), the IC50 [28] was 11.9 µM (active) and the EC50 [29] was 5.56 µM (active). For the same molecule, the EC50 [30] was 18.1 µM (active), the IC50 [31] was > 128 µM (inactive) and the IC50 [32] was 17.8 µM (active).
For `Cc1ccc(C)c(Cn2c(C(=O)OC(C)C)cc3c2ccn3C)c1`, the AC50 [33] was 21.9 µM (active) and the AC50 [34] was 11.6 µM (active).
